Source: ChEMBL document CHEMBL1149066, “Esperamicin P, the tetrasulfide analog of esperamicin A1” (J Nat Prod, 1994)
Values after ≈ are worked out from the molar mass of the structure shown. Active and inactive are the calls of the source. No cut-off for these calls is given here.

Assays:
[1] = tested on: Escherichia coli; assay: Antimicrobial activity against Escherichia coli A15119 by serial twofold dilution method; type: functional
[2] = tested on: Staphylococcus aureus; assay: Antimicrobial activity against Staphylococcus aureus A9537 by serial twofold dilution method; type: functional
[3] = tested on: P388; assay: In vivo antitumor activity against mouse P388 cells at 1 to 3 ug/kg, ip; type: functional
[4] = tested on: A549; assay: Cytotoxicity against […]-resistant human A549 cells; type: functional, cell-based
[5] = tested on: Escherichia coli; assay: Antimicrobial activity against Escherichia coli A9751 by serial twofold dilution method; type: functional
[6] = tested on: Pseudomonas aeruginosa; assay: Antimicrobial activity against Pseudomonas aeruginosa A20235 by serial twofold dilution method; type: functional
[7] = tested on: P388; assay: Antitumor activity against mouse P388 cells in iv dosed in vivo system; type: functional, organism-based
[8] = tested on: Proteus vulgaris; assay: Antimicrobial activity against Proteus vulgaris A21559 by serial twofold dilution method; type: functional
[9] = tested on: Staphylococcus aureus; assay: Antimicrobial activity against Staphylococcus aureus A24407 by serial twofold dilution method; type: functional
[10] = tested on: Staphylococcus aureus; assay: Antimicrobial activity against Staphylococcus aureus A20698 by serial twofold dilution method; type: functional
[11] = tested on: Escherichia coli; assay: Antimicrobial activity against Escherichia coli A20697 by serial twofold dilution method; type: functional
[12] = tested on: Pseudomonas aeruginosa; assay: Antimicrobial activity against Pseudomonas aeruginosa A9843 by serial twofold dilution method; type: functional
[13] = tested on: Enterococcus faecalis; assay: Antimicrobial activity against Enterococcus faecalis A25707 by serial twofold dilution method; type: functional
[14] = tested on: Enterococcus faecalis; assay: Antimicrobial activity against Enterococcus faecalis A25708 by serial twofold dilution method; type: functional
[15] = tested on: HCT-116; assay: Cytotoxicity against human HCT116 cells; type: functional, cell-based
[16] = tested on: Klebsiella pneumoniae; assay: Antimicrobial activity against Klebsiella pneumoniae A20468 by serial twofold dilution method; type: functional
[17] = tested on: Klebsiella pneumoniae; assay: Antimicrobial activity against Klebsiella pneumoniae A9664 by serial twofold dilution method; type: functional
[18] = tested on: A549; assay: Cytotoxicity against human A549 cells; type: functional, cell-based
[19] = tested on: B16; assay: Cytotoxicity against mouse B16-PRIM cells; type: functional, cell-based
[20] = Cytotoxicity against human HCT/VP35 cells; type: functional, cell-based
[21] = tested on: Enterococcus faecalis; assay: Antimicrobial activity against Enterococcus faecalis A20688 by serial twofold dilution method; type: functional

C=C(OC)C(=O)Nc1cc(OC)c(OC)cc1C(=O)O[C@H]1C[C@H](O[C@@H]2C(=O)C(NC(=O)OC)=C3/C(=C\CSSSSC)[C@]2(O)C#C/C=C\C#C[C@@H]3O[C@@H]2O[C@H](C)[C@@H](NO[C@H]3C[C@H](O)[C@H](SC)[C@@H](C)O3)[C@H](O)[C@H]2O[C@H]2C[C@H](OC)[C@@H](NC(C)C)CO2)O[C@@H](C)[C@H]1O [ESPERAMICIN P]
MIC [1]: 0.25 µg/mL (≈ 184 nM)
MIC [2]: 0.001 µg/mL (≈ 0.737 nM)
T/C [3]: 145%
IC50 [4]: 0.01 µg/mL (≈ 7.37 nM)
MIC [5]: 0.016 µg/mL (≈ 11.8 nM)
MIC [6]: 0.13 µg/mL (≈ 95.8 nM)
Activity [7]: inactive
MIC [8]: 0.13 µg/mL (≈ 95.8 nM)
MIC [9]: 0.001 µg/mL (≈ 0.737 nM)
MIC [10]: 0.001 µg/mL (≈ 0.737 nM)
MIC [11]: 0.25 µg/mL (≈ 184 nM)
MIC [12]: 0.25 µg/mL (≈ 184 nM)
MIC [13]: 0.002 µg/mL (≈ 1.47 nM)
MIC [14]: 0.002 µg/mL (≈ 1.47 nM)
IC50 [15]: < 0.002 µg/mL
MIC [16]: 1 µg/mL (≈ 737 nM)
MIC [17]: 1 µg/mL (≈ 737 nM)
IC50 [18]: 0.01 µg/mL (≈ 7.37 nM)
IC50 [19]: > 0.002 µg/mL
IC50 [20]: < 0.002 µg/mL
MIC [21]: 0.002 µg/mL (≈ 1.47 nM)

C=C(OC)C(=O)Nc1cc(OC)c(OC)cc1C(=O)O[C@H]1C[C@H](O[C@@H]2C(=O)C(NC(=O)OC)=C3/C(=C\CSSSC)[C@]2(O)C#C/C=C\C#C[C@@H]3O[C@@H]2O[C@H](C)[C@@H](NO[C@H]3C[C@H](O)[C@H](SC)[C@@H](C)O3)[C@H](O)[C@H]2O[C@H]2C[C@H](OC)[C@@H](NC(C)C)CO2)O[C@@H](C)[C@H]1O
Activity [7]: Active
